According to DBAASP:
≈ marks a conversion by molar mass, not a printed value. Where “and” joins values, the source holds several entries; their conditions need not be identical. Equal values may be shown once. Each block holds one compound with its values, some of them ahead of it.

Tests used:
Test in all cases: ≥ marks a high value that may be exact or a test limit, other limits are often not marked, values filed in µg/mL are converted to µM
[1] = tested on: Staphylococcus epidermidis ATCC 35984
[2] = tested on: Pseudomonas aeruginosa ATCC 27853
[3] = tested on: Staphylococcus aureus ATCC 25923
[4] = tested on: Staphylococcus aureus ATCC 33591
Pseudomonas aeruginosa = tested on: Pseudomonas aeruginosa
Escherichia coli B = tested on: Escherichia coli B
Escherichia coli 363 = tested on: Escherichia coli 363
Staphylococcus aureus = tested on: Staphylococcus aureus
[5] = tested on: Micrococcus luteus ATCC 10240
Escherichia coli BL21AI = tested on: Escherichia coli BL21AI
[6] = tested on: Streptococcus pyogenes ATCC 19615
[7] = tested on: Enterococcus faecalis ATCC 29212
[8] = tested on: Klebsiella pneumoniae ATCC 13883
Escherichia coli = tested on: Escherichia coli
Bacillus subtilis = tested on: Bacillus subtilis
[9] = tested on: Salmonella enterica subsp. enterica serovar Typhimurium ATCC 14028
[10] = tested on: Trichosporon beigelii KCTC 7707
[11] = tested on: Candida albicans TIMM 1768
[12] = tested on: Saccharomyces cerevisiae KCTC 7296
[13] = tested on: Escherichia coli BL21(DE3)
[14] = tested on: Candida parapsilosis ATCC 22019
[15] = tested on: Candida albicans ATCC 24433

MIC [6]: 4 µM and 8 µM
MIC [2]: 8 µM and > 4 µM and 10 µM
MIC [7]: 4 µM and 8 µM
MIC [8]: 4 µM and 8 µM
MIC [13]: 8 µM (≈ 13 µg/mL)
MIC (Bacillus subtilis): 10 µM and 4 µM and 8 µM
MIC [9]: 8 µM and > 4 µM and 10 µM
Compound: CC[C@H](C)[C@H](NC(=O)[C@H](CC(C)C)NC(=O)[C@H](Cc1c[nH]c2ccccc12)NC(=O)[C@@H](NC(=O)[C@H](CC(C)C)NC(=O)[C@H](CCCN=C(N)N)NC(=O)[C@@H](N)CCCN=C(N)N)[C@@H](C)CC)C(=O)N[C@@H](CC(C)C)C(=O)N[C@@H](CCCN=C(N)N)C(=O)N[C@@H](CC(C)C)C(=O)N[C@@H](CC(C)C)C(=O)N[C@@H](CCCN=C(N)N)C(N)=O [RRLIWLILRLLR]

MIC [14]: ≥ 267 µM
MIC [15]: ≥ 267 µM
Compound: CC(C)C[C@H](NC(=O)[C@H](CCCN=C(N)N)NC(=O)[C@H](CCC(N)=O)NC(=O)[C@H](Cc1cnc[nH]1)NC(=O)[C@@H](NC(=O)[C@H](CCCCN)NC(=O)[C@H](CC(C)C)NC(=O)[C@H](CCC(=O)O)NC(=O)[C@H](CO)NC(=O)[C@H](CCCN=C(N)N)NC(=O)[C@@H](N)CO)C(C)C)C(=O)N[C@@H](Cc1ccccc1)C(N)=O [SRSELKVHQRLF]

MIC [14]: ≥ 262 µM
MIC [15]: ≥ 262 µM
Compound: CC(C)C[C@H](NC(=O)[C@H](CCCN=C(N)N)NC(=O)[C@H](CCC(N)=O)NC(=O)[C@H](Cc1cnc[nH]1)NC(=O)[C@@H](NC(=O)[C@H](CCCN=C(N)N)NC(=O)[C@H](CC(C)C)NC(=O)[C@H](CCC(=O)O)NC(=O)[C@H](CO)NC(=O)[C@H](CCCN=C(N)N)NC(=O)[C@@H](N)CO)C(C)C)C(=O)N[C@@H](Cc1ccccc1)C(N)=O [SRSELRVHQRLF]

MIC [5]: 6.46 µM (≈ 16 µg/mL)
MIC (Escherichia coli BL21AI): 6.46 µM (≈ 16 µg/mL)
Compound: CC[C@H](C)[C@H](NC(=O)[C@H](CCCN=C(N)N)NC(=O)[C@H](CCCN=C(N)N)NC(=O)[C@@H]1CCCN1C(=O)[C@@H]1CCCN1C(=O)[C@H](CCCCN)NC(=O)[C@@H]1CCCN1C(=O)[C@H](CCCN=C(N)N)NC(=O)[C@@H]1CCCN1C(=O)[C@H](CC(C)C)NC(=O)[C@H](Cc1ccc(O)cc1)NC(=O)[C@@H]1CCCN1C(=O)[C@@H]1CCCN1C(=O)[C@H](CCCCN)NC(=O)[C@H](CC(=O)O)NC(=O)[C@@H](N)C(C)C)C(=O)N[C@@H](Cc1ccc(O)cc1)C(=O)N[C@@H](CC(N)=O)C(=O)N[C@@H](CC(N)=O)C(=O)N[C@@H](CCCN=C(N)N)C(=O)O [VDKPPYLPRPKPPRRIYNNR]

Continued, compound first:

Compound: CC[C@H](C)[C@H](NC(=O)[C@H](CCCCN)NC(=O)[C@@H](NC(=O)[C@H](Cc1ccccc1)NC(=O)[C@H](C)NC(=O)[C@H](CCCCN)NC(=O)CNC(=O)[C@H](Cc1ccccc1)NC(=O)[C@H](CCCCN)NC(=O)[C@H](CCCCN)NC(=O)[C@H](C)NC(=O)[C@H](CCCCN)NC(=O)[C@H](CCCCN)NC(=O)[C@H](CC(C)C)NC(=O)[C@@H](N)Cc1ccccc1)C(C)C)C(=O)N[C@@H](CC(C)C)C(=O)N[C@@H](CCCCN)C(N)=O [FLKKAKKFGKAFVKILK]
MIC [1]: 1.42 µM (≈ 2.83 µg/mL)
MIC [2]: 1 µM (≈ 2 µg/mL)
MIC [3]: 45.4 µM (≈ 90.5 µg/mL)
MIC [4]: ≥ 128 µM

Compound: CC[C@H](C)[C@H](NC(=O)[C@H](CCCCN)NC(=O)[C@H](CO)NC(=O)[C@H](Cc1c[nH]c2ccccc12)NC(=O)[C@H](CC(C)C)NC(=O)CN)C(=O)N[C@@H](CCCCN)C(=O)N[C@@H](CCC(=O)O)C(=O)N[C@H](C(=O)NCC(=O)N[C@@H](CCCCN)C(=O)N[C@@H](CCC(=O)O)C(=O)N[C@@H](C)C(=O)N[C@@H](C)C(=O)N[C@@H](CCCCN)C(=O)N[C@@H](C)C(=O)N[C@@H](C)C(=O)N[C@@H](C)C(=O)N[C@@H](CCCCN)C(=O)N[C@@H](C)C(=O)N[C@@H](C)C(=O)NCC(=O)N[C@@H](CCCCN)C(N)=O)C(C)C [GLWSKIKEVGKEAAKAAAKAAGK]
MIC (Pseudomonas aeruginosa): 100 µM (≈ 231 µg/mL)
MIC (Escherichia coli B): ≥ 50 µM
MIC (Escherichia coli 363): 25 µM (≈ 57.8 µg/mL)
MIC (Staphylococcus aureus): > 100 µM

Compound: CC[C@H](C)[C@H](NC(=O)[C@@H]1CCCN1C(=O)[C@H](CCCN=C(N)N)NC(=O)[C@@H]1CCCN1C(=O)[C@H](Cc1cnc[nH]1)NC(=O)[C@@H]1CCCN1C(=O)[C@@H]1CCCN1C(=O)[C@H](CCCN=C(N)N)NC(=O)[C@@H]1CCCN1C(=O)[C@H](CCC(N)=O)NC(=O)[C@@H]1CCCN1C(=O)[C@@H](NC(=O)[C@H](Cc1ccc(O)cc1)NC(=O)[C@@H](NC(=O)[C@@H]1CCCN1C(=O)[C@H](CCCN=C(N)N)NC(=O)[C@H](CC(N)=O)NC(=O)[C@H](CC(N)=O)NC(=O)CN)C(C)C)[C@@H](C)CC)C(=O)N[C@@H](CCCN=C(N)N)C(=O)N[C@H](C(=O)O)C(C)C [GNNRPVYIPQPRPPHPRPIRV]
MIC [5]: 0.199 µM (≈ 0.49 µg/mL)
MIC (Escherichia coli BL21AI): 6.35 µM (≈ 15.6 µg/mL)

Compound: CC[C@H](C)[C@H](NC(=O)[C@H](CCCCN)NC(=O)[C@@H](NC(=O)[C@H](Cc1ccccc1)NC(=O)[C@H](C)NC(=O)[C@H](CCCCN)NC(=O)CNC(=O)[C@H](Cc1ccccc1)NC(=O)[C@H](CCCCN)NC(=O)[C@H](CCCCN)NC(=O)[C@H](C)NC(=O)[C@@H](N)CCCCN)C(C)C)C(N)=O [KAKKFGKAFVKI]
MIC [1]: ≥ 133 µM
MIC [2]: 66.3 µM (≈ 90.4 µg/mL)
MIC [3]: > 375 µM
MIC [4]: ≥ 375 µM

Compound: CC(C)C[C@H](NC(=O)[C@H](CCCN=C(N)N)NC(=O)CNC(=O)CNC(=O)[C@@H](N)CCCN=C(N)N)C(=O)N[C@@H](Cc1ccc(O)cc1)C(=O)N[C@@H](CCCN=C(N)N)C(=O)N[C@@H](CCCN=C(N)N)C(=O)N[C@@H](CCCN=C(N)N)C(=O)N[C@@H](Cc1ccccc1)C(=O)N[C@H](C(=O)N[C@H](C(=O)NCC(=O)N[C@@H](CCCN=C(N)N)C(N)=O)C(C)C)C(C)C [RGGRLYRRRFVVGR]
MIC [6]: 8 µM (≈ 14 µg/mL)
MIC [2]: 8 µM (≈ 14 µg/mL)
MIC [3]: 2 µM (≈ 3.49 µg/mL)
MIC [7]: 4 µM (≈ 6.99 µg/mL)
MIC [8]: 8 µM (≈ 14 µg/mL)
MIC (Escherichia coli): 4 µM (≈ 6.99 µg/mL)
MIC (Bacillus subtilis): 8 µM (≈ 14 µg/mL)
MIC [9]: 8 µM (≈ 14 µg/mL)

Compound: CC[C@H](C)[C@H](NC(=O)[C@@H](NC(=O)[C@@H](N)CCCN=C(N)N)[C@@H](C)CC)C(=O)N[C@@H](CC(=O)O)C(=O)N[C@@H](CC(C)C)C(=O)N[C@@H](CC(C)C)C(=O)N[C@@H](Cc1c[nH]c2ccccc12)C(=O)N[C@@H](CCCN=C(N)N)C(=O)N[C@H](C(=O)N[C@@H](CCCN=C(N)N)C(=O)N[C@@H](CCCN=C(N)N)C(=O)N1CCC[C@H]1C(=O)N[C@@H](Cc1c[nH]c2ccccc12)C(=O)N[C@@H](Cc1c[nH]c2ccccc12)C(=O)N1CCC[C@H]1C(=O)N[C@@H](CCCCN)C(=O)N[C@@H](Cc1ccccc1)C(=O)N[C@H](C(=O)N[C@H](C(=O)N[C@H](C(=O)N[C@@H](Cc1c[nH]c2ccccc12)C(=O)N[C@H](C(=O)N[C@@H](CCCN=C(N)N)C(N)=O)C(C)C)C(C)C)[C@@H](C)O)C(C)C)C(C)C [RIIDLLWRVRRPWWPKFVTVWVR]
MIC [10]: 20 µM (≈ 61.6 µg/mL)
MIC [11]: 10 µM (≈ 30.8 µg/mL)
MIC [12]: 14.1 µM (≈ 43.5 µg/mL)

Compound: CC[C@H](C)[C@H](NC(=O)[C@@H](NC(=O)[C@@H](N)CCCN=C(N)N)[C@@H](C)CC)C(=O)N[C@@H](CC(=O)O)C(=O)N[C@@H](CC(C)C)C(=O)N[C@@H](CC(C)C)C(=O)N[C@@H](Cc1c[nH]c2ccccc12)C(=O)N[C@@H](CCCN=C(N)N)C(=O)N[C@H](C(=O)N[C@@H](Cc1c[nH]c2ccccc12)C(=O)N[C@@H](CCCN=C(N)N)C(=O)N1CCC[C@H]1C(=O)N[C@@H](CCC(N)=O)C(=O)N[C@@H](CCCCN)C(=O)N1CCC[C@H]1C(=O)N[C@@H](CCCCN)C(=O)N[C@@H](Cc1ccccc1)C(=O)N[C@H](C(=O)N[C@H](C(=O)N[C@H](C(=O)N[C@@H](Cc1c[nH]c2ccccc12)C(=O)N[C@H](C(=O)N[C@@H](CCCN=C(N)N)C(N)=O)C(C)C)C(C)C)[C@@H](C)O)C(C)C)C(C)C [RIIDLLWRVWRPQKPKFVTVWVR]
MIC [10]: 10 µM (≈ 29.9 µg/mL)
MIC [11]: 20 µM (≈ 59.8 µg/mL)
MIC [12]: 10 µM (≈ 29.9 µg/mL)
